Legend:
[1] = tested on: Staphylococcus epidermidis ATCC 35984; assay: Bacterial growth assay, microtiter plates OD600; assay type: cell-based; conditions: untreated growth control = 100%
Procedure: Bacterial growth assays. Microtiter plates: bacterial growth was evaluated by difference between the optical density absorbance at 600 nm measured at the end and the beginning of the incubation time (37° C., 1, 4 or 24 h) in 96-well poly(vinyl chloride) microtiter plates. Rifampicin 16 μg/mL (Sigma-Aldrich Co., USA) was used as a control for bacterial growth inhibition. Colony-forming units (CFU/mL): after incubation (37° C., 24 h) the CFU was calculated to determine bactericidal effect of peptide solution. Untreated growth control was considered 100% of planktonic cells. All assays were at least performed as technical and biological triplicates.
Microtiter plates: Bacterial growth was evaluated by comparing OD600 values at the start and end of incubation in 96-well PVC microtiter plates.

[2] = tested on: Staphylococcus epidermidis RP62A (ATCC 35984) biofilm; assay: Biofilm formation inhibition, crystal violet in 96-well PVC microtiter plates; assay type: cell-based; conditions: biofilm formation control = 100%
Procedure: Biofilm formation. […] Biofilm inhibition: a protocol adapted from Zimmer et al. (2013) Environmental Microbiology 15:2008-2018 and Trentin et al. (2015) Scientific Reports 5:8287, employing crystal violet in 96-well poly(vinyl chloride) microtiter plates (Falcon; Becton Dickinson Labware, Oxnard, Calif.) was used. Briefly, 100 μL of the bacterial suspension, 100 μL of the peptide solution (at different concentrations) or vehicle (to controls) and 50 μL of tryptone soya broth (TSB, Oxoid Ltd., England). Following 37° C. for 1, 4 or 24 h of incubation, the content of the wells was removed and the wells were washed three times with sterile saline. The remaining contents were heat-fixed at 60° C. for 1 h. The adherent biofilm layer formed was stained with 0.4% crystal violet for 15 min at room temperature and then washed three times with distilled water. The stain bound to the cells was solubilized with absolute ethanol (Sigma-Aldrich Co., USA) and absorbance was measured at 570 nm (Powerwave™ XS Plate Reader, BIO-TEK Instruments®, Inc.). The biofilm formation controls represent 100% of biofilm formation. Biofilm eradication: biofilm was pre-formed as described before, during 24 h at 37° C., without treatment. After biofilm formation, the wells were washed to remove the planktonic cells and the peptides solutions and controls were added and incubated for 24 h. The eradication was verified by evaluating the remaining content by crystal violet.
Biofilm formation inhibition: A protocol adapted from Trentin et al. (2015) Scientific Reports 5 was used, with crystal violet in 96-well BD Falcon polyvinyl chloride (PVC) microtiter plates. The cell-bound stains were solubilized with absolute ethanol (Sigma-Aldrich), and absorbance was measured at 570 nm using a BIO-TEK PowerWave XS plate reader. The biofilm formation control represents 100% of biofilm formation.

[3] = positive control, concentration 780 (μM)

Row | Compound | Growth (%) ([1]; peptide concentration 100 μM) | Remanescent biofilm (%) ([2]; peptide concentration 100 μM) | further results
1 | CO[C@H]1/C=C/O[C@@]2(C)Oc3c(C)c(O)c4c(O)c(c(/C=N/N5CCN(C)CC5)c(O)c4c3C2=O)NC(=O)/C(C)=C\C=C\[C@H](C)[C@H](O)[C@@H](C)[C@@H](O)[C@@H](C)[C@H](OC(C)=O)[C@@H]1C [Rifampicin, reference compound] |  |  | Growth (%) [1, 3]: 28.7%; Remanescent biofilm (%) [2, 3]: 9.7%
2 | IQQAQQLS (P3y) |  |  | Growth (%) ([1]; peptide concentration 10 μM): 172.0%; Remanescent biofilm (%) ([2]; peptide concentration 10 μM): 6.2%
3 | RSCQQQ (P3x) | 91.9% | 34.4% | 
4 | RSCQQQIQQAQQ (P3a) | 89.9% | 61.5% | 
5 | RSCQQQIQQAQQLSSCQQYLKQRVQSEEGEDQISQRE (P31) [synthetic peptide derived from 2S sulfur-rich seed storage protein 2-like of Capsicum baccatum] |  |  | Growth (%) ([1]; peptide concentration 400 μM): 88.6%; Remanescent biofilm (%) ([2]; peptide concentration 400 μM): 8.3%
6 | RVQSEEGEDQISQRE (P1) | 123.2% | 64.9% | 
7 | SCQQYLKQ (P3z) | 169.9% | 46.3% | 

From US20220153786A1, “PEPTIDES FOR PREVENTING BIOFILM FORMATION” (priority 2019, published 2022)
